# Test results reported in patent US11286278B2, “DPEP-1 binding agents and methods of use” (Arch Biopartners, Inc., priority 2018, dated 2022).
# What was measured:
# [1] = test system: monocyte adhesion in kidney; assay: Endotoxemia induced kidney inflammation, monocyte adhesion by multiphoton microscopy; format: in vivo, mouse; details: LysM gfp/gfp mice, LPS O111:B4 5 mg/kg i.v., 4 hours post LPS, peptide pretreatment
# Experimental: HEK293T cells were transfected with pcDNA vector containing human DPEP1 via Lipofectamine 2000 as per manufacturer protocol. Transfected cells were positively selected for using geneticin resistance and subcloned to generate stably transfected DPEP1 clones. Human renal tubular epithelial cells (hTEC) were isolated and cultured from human kidney nephrectomies. For immunocytochemistry, cells were cultured on collagen coated glass coverslips and fixed by 4% paraformaldehyde. Fixed cells were incubated with biotinylated LSALT peptides (50 μM) with various modifications (glycine linkers and/or amidation) for 1 hour at 37° C. before PBS washes. Bound biotinylated peptide was detected via secondary streptavidin fluorescent conjugate (30 min. incubation at 37° C.) and washed with PBS. […] Bound biotinylated peptide was detected via secondary streptavidin fluorescent conjugate (30 min. incubation at 37° C.) and washed with PBS. Peptide binding was analyzed via flow cytometer. […] Inflammation was quantified by manual counting of monocyte adhesion in single microscopy fields (n=3-6 fields/group; *:p=0.02).
# Plasma was separated for each sample and phosphoric acid added to stabilize peptide at each timepoint. Samples were assessed for LSALT and its' metabolites using LC/MS. […] Peptide binding was analyzed via flow cytometer. […]
# [2] = test system: LPS activated endothelial cells (HLMVEC); assay: Static neutrophil adhesion assay to LPS activated endothelial cells (HLMVEC); format: cell-based; details: human neutrophils, peptides at 100 uM or antibody at 13 ug/mL, LPS 1 ug/mL
# Experimental: (§1) In the top panel, 96-well nickel-coated plates were coated with nothing or his-tagged recombinant human DPEP1 (9 pmol/well in PBS, incubated for 1 hr at room temp), washed out 3× with PBS +0.05% Tween 20, and blocked for 1 hr at room temp with cell culture media (Cell Applications Inc. Cat#111-500). Freshly isolated human neutrophils were added to the wells at 5×10^4/mL, 100 uL volume, with the indicated peptides at 0.45uM. After 30 minutes at 37° C., wells were washed out 3× with PBS, and fixed with 3.7% formaldehyde in PBS. Two fields-of-view were photographed at 4× magnification and all the cells counted were recorded for each well, done in triplicate. In the middle panel, Cos1 cells were transfected with an empty vector (Mock) or a vector encoding wild type human DPEP1, two days prior. One day prior, transfected cells were plated at near confluency in a 24-well plate. On the day of the experiment, freshly isolated human neutrophils were added to the wells at 1×10^5/mL, 0.5mL volume, with the indicated peptides at 100 uM. After 30 minutes at 37° C., wells were washed out 3× with culture media, then fixed in 3.7% formaldehyde in PBS. Five fields-of-view were photographed at 20× magnification and averaged for each well, done in triplicate. In the bottom panel, two days prior, 24-well plates were coated with Attachment Factor Solution (Cell Applications Inc. Cat#123-500). […]
# [3] = target: T1, DPEP1 (Homo sapiens, UniProt P16444); assay: Phage hit binding to DPEP1 transfected Cos 1 cells; design: expressed in transfected cells; host or cells: Cos-1; details: 10^8 pfu test phage, backscreen DPEP1 vs DPEP2
# T1 sequence (P16444 17-385): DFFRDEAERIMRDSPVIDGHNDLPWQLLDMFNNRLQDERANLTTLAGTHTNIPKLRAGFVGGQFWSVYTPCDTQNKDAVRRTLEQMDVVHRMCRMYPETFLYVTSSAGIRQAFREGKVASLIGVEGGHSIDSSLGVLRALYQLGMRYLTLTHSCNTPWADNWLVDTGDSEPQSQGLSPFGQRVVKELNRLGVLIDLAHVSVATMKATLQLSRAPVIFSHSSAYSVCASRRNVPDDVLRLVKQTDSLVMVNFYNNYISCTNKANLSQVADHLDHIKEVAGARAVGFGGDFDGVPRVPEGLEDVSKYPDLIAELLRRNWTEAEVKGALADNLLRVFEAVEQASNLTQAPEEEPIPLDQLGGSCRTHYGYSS
# Experimental: The Ph.D.-12 library was first subtracted 3× against DPEP2 (Creative Biomart; DPEP2-8611H) linked to agarose beads (10 uL of DPEP-agarose in 100 uL Luria broth and 4.5×10^9 pfu of Ph.D.-12 library), wherein the phage remaining in the supernatant was retained, and those that stuck to the subtraction beads were discarded. Second, the library was selected against DPEP1-agarose beads, wherein the phage remaining in the supernatant were discarded and those binding to DPEP1-agarose pellet were retained. The pellet was washed 3× in PBS, then transferred to phage host bacterial culture (ER 2738) to amplify the bound phage, which were then precipitated as per manufacturer's protocol. The recovered phage were then used to repeat the subtraction and selection steps. […] Each plaque was amplified separately in liquid bacterial host culture. […] DNA inserts were translated to the expected protein and sorted to assess the number of repeating sequences. […]
# In FIG. 19B, Cos1 cells were transiently transfected with plasmids corresponding to human DPEP1 or DPEP2 (Lipofectamine 2000) 24 hrs prior to plating on collagen-coated (PureCol; Type I collagen from bovine tendon) coverslips. One day later cells were incubated with 10^8 pfu test phage, which were then detected by anti-M13 rabbit serum (in house) with anti-rabbit Alexa 568 secondary. […]
# [4] = test system: Cos 1 transfected cells (human DPEP1); assay: Static neutrophil adhesion assay to DPEP1 transfected Cos1 cells; format: cell-based; details: human neutrophils, peptides at 100 uM, 30 minutes
# Experimental: as §1
# [5] = target: T1, DPEP1; assay: Static neutrophil adhesion assay to recombinant hDPEP1; format: cell-based; design: purchased Creative Biomart DPEP1-77H; details: human neutrophils, peptides at 0.45uM, 30 minutes
# Experimental: as §1
sequence,measurement,setting,value
"GGGLSALTPSPSWLKYKAL [Peptide G2, tri-glycine LSALT (G2)]",endotoxemia induced kidney inflammation (monocyte adhesion),[1],can inhibit endotoxemia induced kidney inflammation
HIPKSPIQIPII,neutrophil adhesion to LPS activated endothelial cells (HLMVEC),[2],able to inhibit neutrophil adhesion
KHMHWHPPALNT,phage binding to DPEP1 transfected cells,[3],brightest binding to DPEP1 transfected cells
KHMHWHPPALNT [NeoH],neutrophil adhesion to DPEP1 transfected Cos 1 cells,[4],able to inhibit neutrophil adhesion
same,neutrophil adhesion to LPS activated endothelial cells (HLMVEC),[2],able to inhibit neutrophil adhesion
same,neutrophil adhesion to recombinant hDPEP1,[5],able to inhibit neutrophil adhesion
